# According to patent publication US10233174B2 (THERAVANCE BIOPHARMA R&D IP, LLC, priority 2017, dated 2019):
# Biological target: β-glucuronidase (Escherichia coli, UniProt P05804)
# Assay: Assay 11: Release of H2S and Tofacitinib (incubation with β-glucuronidase and monobromobimane)
# Type: in vitro ADME
# Conditions: 50 μM compound 1, β-glucuronidase 100 units/mL, MBB 100 μM, pH 7.4, 37° C.
# Protocol: The method used to detect H2S was previously described in Tan et al., Nature Scientific Reports, 2017, 7:46278, DOI: 10.1038/srep46278.
# Compound 1 (50 μM) was incubated with β-glucuronidase (100 units/mL) and monobromobimane (MBB, 100 μM) in potassium phosphate buffer pH 7.4 (100 mM) for 60 min at 37° C. In addition, incubations were carried out with and without a) β-glucuronidase and b) MBB as negative control. Incubation of SN38-Glucuronide was also carried out with β-glucuronidase as a positive control for β-glucuronidase activity. The reactions were terminated at 60 min by the addition of three volumes of ice-cold acetonitrile to the incubation mixture. The incubation samples were centrifuged (4° C., 2200×g, 10 minutes) and the supernatants were transferred to amber HLPC vials. All samples were stored at 4° C. until the analysis. The samples were analyzed using a Thermo Orbitrap LC-MS/MS system.
# H2S was trapped using monobromobimane (MBB) to form sulfide dibimane (SDB).
# Sequence of β-glucuronidase (P05804 whole entry): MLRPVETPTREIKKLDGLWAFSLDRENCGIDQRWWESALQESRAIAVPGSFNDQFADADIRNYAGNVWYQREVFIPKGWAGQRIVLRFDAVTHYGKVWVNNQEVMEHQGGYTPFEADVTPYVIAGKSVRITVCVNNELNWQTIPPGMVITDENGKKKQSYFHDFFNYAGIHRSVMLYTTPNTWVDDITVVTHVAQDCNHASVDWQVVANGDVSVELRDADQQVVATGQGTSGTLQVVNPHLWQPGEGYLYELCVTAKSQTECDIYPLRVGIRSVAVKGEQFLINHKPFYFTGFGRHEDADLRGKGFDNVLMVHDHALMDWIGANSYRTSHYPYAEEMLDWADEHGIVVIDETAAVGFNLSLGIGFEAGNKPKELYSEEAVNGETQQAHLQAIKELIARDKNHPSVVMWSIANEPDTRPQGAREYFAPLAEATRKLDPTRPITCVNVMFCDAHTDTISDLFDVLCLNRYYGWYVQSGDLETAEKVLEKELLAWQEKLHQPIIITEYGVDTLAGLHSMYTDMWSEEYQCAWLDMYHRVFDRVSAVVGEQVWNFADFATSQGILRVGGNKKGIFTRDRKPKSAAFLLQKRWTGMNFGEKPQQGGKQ
structure (smiles),measurement,value
"C[C@@H]1CCN(C(=O)CC#N)C[C@@H]1N(C)c1ncnc2c1ccn2C(=O)N(C)CCN(C)C(=S)OCc1ccc(O[C@@H]2O[C@H](C(=O)O)[C@@H](O)[C@H](O)[C@H]2O)c([N+](=O)[O-])c1 [Compound 1, (2S,3S,4S,5R,6S)-6-(4-((((2-(4-(((3R,4R)-1-(2-cyanoacetyl)-4-methylpiperidin-3-yl)(methyl)amino)-N-methyl-7H-pyrrolo[2,3-d]pyrimidine-7-carboxamido)ethyl)(methyl)carbamothioyl)oxy)methyl)-2-nitrophenoxy)-3,4,5-trihydroxytetrahydro-2H-pyran-2-carboxylic acid]",% (MS Peak Area) (60 min) of compound 1 (Parent) remaining,0%
